The nature of assay [1]: M tuberculosis H37Rv growth inhibition in absence of glycerol, confirmatory, IC90 (AID 504645).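 Also: bacteria grown one week before the viability dye was added.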 Particulars: M. tuberculosis H37Rv growth inhibition, glycerol-free medium; at 25 µM (top of the series).
In assay [2] the test system is M. tuberculosis H37Rv growth inhibition, glycerol-free medium. Described as above. Particulars: for IC90: measured here: 90% growth inhibition.

“And” between values parts separate entries of the source, which are not always exact repeats. Equal values may be shown once. The source made the active and inactive calls. No rule for the calls is given here.

What is called inhibition is the change of the read-out against control, counted positive when it falls. On to `O=C(CSc1ccccn1)NC1CCCCC1`, for which, in assay [1], the inhibition was 5.28% (inactive). Regarding `Nc1cc(=O)[nH]c(SCC(=O)Nc2ccccc2-c2ccccc2)n1`, in assay [1], the inhibition was 3.67% (inactive). For the compound `CCC(Sc1nc(=O)cc(N)n1-c1ccccc1)C(=O)Nc1cc(C)on1` (stereo unspecified), the inhibition in assay [1] was 3.38% (inactive).

As to `CCOC(=O)C(CC)Sc1ncnc2c1nnn2-c1ccc(F)cc1` (stereo unspecified), in assay [1], the inhibition is 14.7% (inactive).

With `Cc1ccc(NC(=O)CSc2nc(N)c(-c3ccccc3)c(=O)[nH]2)cc1Cl`, the inhibition in assay [1] is 1.17% (inactive). On to `CCSc1nc(C)c(C)c(=O)[nH]1`, for which the inhibition in assay [1] was 3.06% (inactive). With `CCSc1nc2ccccc2c(=O)[nH]1`, in assay [1], the inhibition is 4.69% (inactive). Same read-out and setting: the result for `CCOc1ccc(NC(=O)c2ccc(CNc3c(N4CCCC4)c(=O)c3=O)cc2)cc1` reads 7.47% (inactive); that for `COc1ccc(NC(=O)CSc2nc(NS(=O)(=O)c3ccc(C)cc3)cc(=O)[nH]2)cc1`, 1.34% (inactive). Turning to `Cc1cc(=O)[nH]c(SCC(=O)Nc2ncc(S(=O)(=O)c3ccc([N+](=O)[O-])cc3)s2)n1`, the inhibition in assay [1] was 2.85% (inactive).

Take `CCOc1ccc(NC(=O)CSc2nc(N)c(-c3ccccc3)c(=O)[nH]2)cc1`: in assay [1], the inhibition is 2.14% (inactive). As to `CCOC(=O)N1CCC(Nc2c(Nc3cccc(CC)c3)c(=O)c2=O)CC1`, in assay [1], the inhibition is 11.5% (inactive). As to `CC1CCN(C(=O)CSc2nc3ccccc3c(=O)[nH]2)CC1`, the inhibition in assay [1] is -0.18% (inactive). For `CCOC(=O)N1CCC(Nc2c(N3CCN(c4cccc(C(F)(F)F)c4)CC3)c(=O)c2=O)CC1`, in assay [1], the inhibition is 3.78% (inactive). As to `Cc1[nH]c(=S)[nH]c(=O)c1C`, the inhibition in assay [1] was -1.69% (inactive). As for `Nc1cc(=O)[nH]c(SCC(=O)Nc2ccc(Oc3ccccc3)cc2)n1`, in assay [1], the inhibition was 7.34% (inactive).

As for `CCc1cc(=O)[nH]c(SCC(=O)Nc2ccc3c(c2)OCCO3)n1`, the inhibition in assay [1] was 5.24% (inactive). Still for that read-out and setting: the result for `COc1ccc(-c2noc(CSc3nc(N)c(-c4ccccc4)c(=O)[nH]3)n2)cc1OC` reads 3.69% (inactive). As to `Cc1cc(=O)[nH]c(=S)[nH]1`, in assay [1], the inhibition was 3.98% (inactive). Regarding `Cc1c[nH]c(=S)[nH]c1=O`, in assay [1], the inhibition is 3.09% (inactive). For the compound `CN(C(=O)CSc1nc2ccccc2c(=O)[nH]1)C1CCCCC1`, the inhibition in assay [1] was 3.96% (inactive).

On to `Cc1nc(SCc2ccccc2Cl)[nH]c(=O)c1C`, for which the inhibition in assay [1] is -3.47% (inactive). Still for that read-out and setting: the result for `O=C(NCC1COc2ccccc2O1)C1CCC(CNc2c(N3CCCCC3)c(=O)c2=O)CC1` (stereo unspecified) reads 4.5% (inactive); that for `Cc1nc(SCC(N)=O)[nH]c(=O)c1C`, 2.85% (inactive).

In the case of `CCOC(=O)CSc1nc(C)c(C)c(=O)[nH]1`, the inhibition in assay [1] was -1.83% (inactive). In the case of `O=c1[nH]c(=S)[nH]c2ccccc12`, in assay [1], the inhibition was -4.53% (inactive).

On to `COC(=O)C(Nc1nc(SCC(=O)NC2CCCCC2)nc2ccccc12)c1ccccc1` (stereo unspecified), for which the inhibition in assay [1] is -2.65% (inactive). In the case of `O=C(C1CCC(CNc2c(N3CCCCC3)c(=O)c2=O)CC1)N1CCCCC1` (stereo unspecified), the inhibition in assay [1] was 1.49% (inactive). For the compound `O=C(CSc1ncccn1)NC1CCCCC1`, the inhibition in assay [1] was 2.15% (inactive).

As for `Cc1ccc(NC(=O)CSc2nc(N)cc(=O)[nH]2)cc1Cl`, the inhibition in assay [1] was 10.7% (inactive). For `CCCc1cc(=O)[nH]c(SCC(=O)Nc2cc3c(cc2C(C)=O)OCO3)n1`, the inhibition in assay [1] was 9.03% (inactive). Regarding `C=CCn1c(SCC(=O)Nc2cccc3ccccc23)nc(O)c(CC)c1=O`, the inhibition in assay [1] was 6.9% (inactive). The same measure, in the same setting: the result for `Oc1ccccc1/C=N/Nc1ccnc(SCc2ccccc2)n1` reads 2.52% (inactive); that for `Cc1cccc(N2CCN(C(=O)c3ccc(CNc4c(N5CCC(C)CC5)c(=O)c4=O)cc3)CC2C)c1` (stereo unspecified), 4.48% (inactive).

Take `CCc1c(O)nc(SCC(=O)Nc2ccc(OC)cc2)n(C2CCCCC2)c1=O`: the inhibition in assay [1] is 2.43% (inactive). As to `Cc1nc(SCC(=O)N(C)c2ccccc2)[nH]c(=O)c1C`, in assay [1], the inhibition was -1.39% (inactive).

In the case of `CCOc1ccc2nc(NC(=O)C(CC)Sc3nc(C)cc(=O)[nH]3)sc2c1` (stereo unspecified), the inhibition in assay [1] is 4.79% (inactive).

As to `CC(NC(=O)CSc1nc2ccccc2c(=O)[nH]1)c1ccccc1` (stereo unspecified), in assay [1], the inhibition is 1.63% (inactive). In general, IC50 refers to the concentration that inhibits the measured activity by half. Broadly, the IC90 is the concentration needed for an effect of 90%. A low value points to greater potency. Consider `Cc1cc(C)n2nc(N)c(N=Nc3ccccc3)c2n1`, for which, in assay [2], the IC50 is 2.49 µM and the IC90 was determined as 3.56 µM. The like results for `Cc1nc(SCC(=O)NC2CCCC2)[nH]c(=O)c1C` were, in that order, 9.96 µM and 16 µM. Consider `Cc1ccc(C(=O)N/N=C(/CC(=O)c2cccs2)C(F)(F)F)cc1`, for which, in assay [2], the IC50 was 2.1 µM and the IC90 stood at 2.81 µM. As to `CCOC(=O)C(C)Sc1ncnc2c1nnn2-c1ccc(F)cc1` (stereo unspecified), in assay [2], the IC50 is 1.2 µM and 4.55 µM; the 90% effect concentration (IC90) is 2.92 µM and 8.28 µM.

As to `CCOC(=O)CSc1ncnc2c1cnn2-c1ccc(C)cc1C`, in assay [2], the IC50 is 4.49 µM and the IC90 came to 6.98 µM. As for `Cc1nc(SCC(=O)NC2CCCCC2)[nH]c(=O)c1C`, in assay [2], the IC50 was 0.67 µM and 2.39 µM; the IC90 was 1.07 µM and 3.73 µM. Turning to `O=C(CSc1nc2ccccc2c(=O)[nH]1)NC1CCCCC1`, in assay [2], the concentration for half-maximal inhibition (IC50) was 0.07 µM and the IC90 amounted to 0.13 µM. Turning to `O=C(CSc1nc2c(c(=O)[nH]1)CCC2)Nc1ccc(F)cc1`, in assay [2], the IC50 is 17.1 µM and the IC90 was > 25 µM.

As for `COC(=O)c1cc(=O)n(-c2ccc(F)cc2)c(=Nc2ccc(F)cc2)s1`, in assay [2], the IC50 was 0.64 µM and the IC90 came out at 1 µM. As to `S=c1nc[nH]c2nc[nH]c12`, in assay [2], the IC50 was 1.48 µM and the IC90 came out at 1.72 µM. As for `O=C(NCC(c1cccs1)N1CCOCC1)c1cc([N+](=O)[O-])cc([N+](=O)[O-])c1` (stereo unspecified), in assay [2], the half-maximal inhibitory concentration (IC50) is 0.41 µM and the IC90 is 0.91 µM. Turning to `COC(=O)c1ccc(CNc2c(N3CCCC3)c(=O)c2=O)cc1`, in assay [1], the inhibition was -5.38% (inactive). As to `Cc1cc(C)cc(NC(=O)CSc2nc3c(c(=O)[nH]2)CN(Cc2ccc(F)cc2)CC3)c1`, in assay [1], the inhibition was -0.57% (inactive). On to `CC(=NCc1ccc2c(c1)OCO2)C1=C(O)c2ccccc2C1=O`, for which, in assay [2], the IC50 is 0.33 µM and the IC90 is 2.35 µM. As for `CCc1c(C)nc(SCC(=O)Nc2ccc3c(c2)OCCO3)[nH]c1=O`, in assay [2], the half-inhibitory concentration (IC50) was 19.4 µM and the IC90 is > 25 µM. On the same counts, the results for `CCOC(=O)CSc1ncnc2c1cnn2-c1ccccc1` are 13.1 µM and > 25 µM.

As to `Cc1cccc(-c2oc3ccc(-c4ccc5c(c4)OCO5)cc3c2C#Cc2cncn2C)c1`, in assay [2], the IC50 is 1.38 µM and the IC90 was 1.86 µM. Consider `Cc1[nH]c2ccccc2c1C(=O)COC(=O)c1ccc([N+](=O)[O-])s1`, for which, in assay [1], the inhibition was 8.85% (inactive). For the compound `CC(=O)c1ccc(NC(=O)c2ccc(CNc3c(N4CCOCC4)c(=O)c3=O)cc2)cc1`, in assay [2], the IC50 is 20 µM and the IC90 is > 25 µM. `O=C(NCCc1ccc(Cl)cc1)C1CCC(CNc2c(N3CCCCC3)c(=O)c2=O)CC1` (stereo unspecified): the inhibition in assay [1] was 14.2% (inactive).

For the compound `O=C(/C=C\c1cccs1)N1CCN(Cc2ccc3c(c2)OCO3)CC1`, in assay [2], the half-inhibitory concentration (IC50) is 0.36 µM and the IC90 was determined as 1.57 µM.
